Measured values from patent US11274129B2, “Methods for protein tyrosine phosphorylation profiling with variant SH2 domains” (priority 2016, dated 2022).

Tests used:
[1] = tested on: mixture of 54 different pTyr-including peptides derived from 54 TK activation loops; experiment: Capture of pTyr-including peptides from a mixture of TK activation loop peptides, scheduled PRM; format: binding
Procedure: Equal molar amounts (10 nmole) of the wild-type (wt) human Src SH2 domain and the DM and TrM human Src SH2 Superbinders (SEQ ID NO: 14 and 5, respectively) expressed with His6 and GST tags were used to capture pTyr-including peptides from a mixture of 54 different pTyr-including peptides (10 pmole each) derived from 54 TK activation loops. The isolated peptides were identified by PRM and quantified based on the corresponding MS peak area. 1.8% of the eluted peptides were injected into a Q-Exactive (Thermo Fisher) preceded with a nano-LC system.
Shown are the amounts of pTyr-including peptides captured, based on the corresponding peak area of PRM signal, by each of the parent human Src SH2 domain and the DM and TrM human Src SH2 Superbinders.

[2] = target: VEGFR1-pTyr^1213 peptide DVRpYVNAAKF; conditions: peptide VEGFR1-pTyr^1213 DVRpYVNAAKF; read-out: equilibrium dissociation constant (Kd); cited from earlier work
[3] = target: EGFR-pTyr^978 peptide PQRpYLVIQGD; conditions: peptide EGFR-pTyr^978 PQRpYLVIQGD; read-out: equilibrium dissociation constant (Kd); cited from earlier work
[4] = target: EGFR-pTyr^1110 peptide NPVpYHNQPLN; conditions: peptide EGFR-pTyr^1110 NPVpYHNQPLN; read-out: equilibrium dissociation constant (Kd); cited from earlier work
[5] = target: MidT-pTyr^324 peptide EPQpYEEIPIYL; conditions: peptide MidT-pTyr^324 EPQpYEEIPIYL; read-out: equilibrium dissociation constant (Kd); cited from earlier work
[6] = target: RSKL-pTyr^423 peptide YQHpYDLDLKD; conditions: peptide RSKL-pTyr^423 YQHpYDLDLKD; read-out: equilibrium dissociation constant (Kd); cited from earlier work
[7] = target: ShcA-pTyr^239 peptide DHQpYYNDFPG; conditions: peptide ShcA-pTyr^239 DHQpYYNDFPG; read-out: equilibrium dissociation constant (Kd); cited from earlier work
[8] = target: ShcA-pTyr^317 peptide DPSpYVNVQNL; conditions: peptide ShcA-pTyr^317 DPSpYVNVQNL; read-out: equilibrium dissociation constant (Kd); cited from earlier work
Designed peptide GGpYGG = conditions: read-out: equilibrium dissociation constant (Kd); cited from earlier work

Thr8Val/Cys10Ala: double-mutant human Src SH2 domain
number of the 54 pTyr-including peptides captured / detected by PRM ([1]; 10 nmole SH2 domain, 10 pmole each peptide): 32 | PRM signal peak area ([1]; BLK (pTyr389) IIDSEpYTAQEGAK, fragment ion b2): 0 | PRM signal peak area ([1]; BMX (pTyr566) YVLDDQpYVSSVGTK, fragment ion b2): 0 | PRM signal peak area ([1]; BTK (pTyr551) YVLDDEpYTSSVGSK, fragment ion b2): 18,246 | PRM signal peak area ([1]; DDR1 (pTyr796/797) NLYAGDpYpYR, fragment ion b2): 43,173 | PRM signal peak area ([1]; DDR2 (pTyr740/741) NLYSGDpYpYR, fragment ion y6): 16,232 | PRM signal peak area ([1]; EPHA1 (pTyr781) LLDDFDGTpYETQGGK, fragment ion y9): 12,335 | PRM signal peak area ([1]; EPHA2 (pTyr772) VLEDDPEATpYTTSGGK, fragment ion y11): 4,858 | PRM signal peak area ([1]; EPHA3 (pTyr779) VLEDDPEAApYTTR, fragment ion y8): 0 | PRM signal peak area ([1]; EPHA6 (pTyr830) VLEDDPEAApYTTTGGK, fragment ion b2): 51,066 | PRM signal peak area ([1]; EPHA8 (pTyr793) VLEDDPDAApYTTTGGK, fragment ion y11): 57,102 | PRM signal peak area ([1]; EPHB1 (pTyr778) YLQDDTSDPTpYTSSLGGK, fragment ion y10): 0 | PRM signal peak area ([1]; EPHB2 (pTyr780) FLEDDTSDPTpYTSALGGK, fragment ion Y3): 98,045 | PRM signal peak area ([1]; EPHB3 (pTyr792) FLEDDPSDPTpYTSSLGGK, fragment ion y10): 14,654 | PRM signal peak area ([1]; EPHB4 (pTyr774) FLEENSSDPTpYTSSLGGK, fragment ion y10): 0 | PRM signal peak area ([1]; ERBB2 (pTyr877) LLDIDETEpYHADGGK, fragment ion b3): 4,642 | PRM signal peak area ([1]; ERBB3 (pTyr866) QLLpYSEAK, fragment ion y2): 151,587 | PRM signal peak area ([1]; FER (pTyr714) QEDGGVpYSSSGLK, fragment ion y7): 0 | PRM signal peak area ([1]; FES (pTyr713) EEADGVpYAASGGLR, fragment ion y8): 0 | PRM signal peak area ([1]; FGFR1 (pTyr653/654) DIHHIDpYpYK, fragment ion b6): 28,967 | PRM signal peak area ([1]; FGFR2 (pTyr656/657) DINNIDpYpYK, fragment ion y4): 39,469 | PRM signal peak area ([1]; FGFR3 (pTyr647/648) DVHNLDpYpYK, fragment ion b3): 64,641 | PRM signal peak area ([1]; FGFR4 (pTyr642/643) GVHHIDpYpYK, fragment ion b3): 29,983 | PRM signal peak area ([1]; FRK (pTyr387) VDNEDIpYESR, fragment ion y6): 0 | PRM signal peak area ([1]; GSK3 (pTyr279/216) GEPNVSpYICSR, fragment ion y6): 0 | PRM signal peak area ([1]; HCK (pTyr411) VIEDNEpYTAR, fragment ion b2): 0 | PRM signal peak area ([1]; INSRR (pTyr1145/1146) DVYETDpYpYR, fragment ion y5): 7,794 | PRM signal peak area ([1]; ITK (pTyr512) FVLDDQpYTSSTGTK, fragment ion y11): 0 | PRM signal peak area ([1]; JAK1 (pTyr1034/1035) EpYpYTVK, fragment ion y2): 46,193 | PRM signal peak area ([1]; JAK2 (pTyr221) IQDpYHILTR, fragment ion Y3): 39,232 | PRM signal peak area ([1]; JAK3 (pTyr980/981) DpYpYVVR, fragment ion y2): 10,521 | PRM signal peak area ([1]; KIT (pTyr823) NDSNpYVVK, fragment ion b2): 0 | PRM signal peak area ([1]; LMTK2 (pTyr295) EDpYIETDDK, fragment ion b2): 1,124 | PRM signal peak area ([1]; LMTK3 (pTyr296/297) EDpYpYLTPER, fragment ion y3): 78,610 | PRM signal peak area ([1]; MERTK (pTyr753/754) IYSGDpYpYR, fragment ion b2): 0 | PRM signal peak area ([1]; MET (pTyr1234/1235) EpYpYSVHNK, fragment ion y2): 70,811 | PRM signal peak area ([1]; MUSK (pTyr755/756) NIYSADpYpYK, fragment ion y2): 0 | PRM signal peak area ([1]; NTRK1 (pTyr680/681) DIYSTDpYpYR, fragment ion b2): 30,204 | PRM signal peak area ([1]; NTRK2 (pTyr706/707) DVYSTDpYpYR, fragment ion y4): 22,794 | PRM signal peak area ([1]; PGFRB (pTyr857) DSNpYISK, fragment ion y2): 0 | PRM signal peak area ([1]; PTK7 (pTyr960/961) DVYNSEpYpYHFR, fragment ion b2): 4,843 | PRM signal peak area ([1]; RET (pTyr905) DVYEEDSpYVK, fragment ion b2): 0 | PRM signal peak area ([1]; RON (pTyr1238/1239) EpYpYSVQQHR, fragment ion y4): 17,370 | PRM signal peak area ([1]; ROR1 (pTyr645/646) EIYSADpYpYR, fragment ion y6): 27,661 | PRM signal peak area ([1]; ROR2 (pTyr645/646) EVYAADpYpYK, fragment ion y5): 60,460 | PRM signal peak area ([1]; SRC (pTyr419) LIEDNEpYTAR, fragment ion b2): 0 | PRM signal peak area ([1]; SRMS (pTyr380) DDIpYSPSSSSK, fragment ion y8): 0 | PRM signal peak area ([1]; TEC (pTyr519) YVLDDQpYTSSSGAK, fragment ion b2): 4,818 | PRM signal peak area ([1]; TIE1 (pTyr1007) GEEVpYVK, fragment ion b2): 0 | PRM signal peak area ([1]; TIE2 (pTyr992) GQEVpYVK, fragment ion b2): 0 | PRM signal peak area ([1]; TXK (pTyr420) YVLDDEpYVSSFGAK, fragment ion b2): 46,128 | PRM signal peak area ([1]; TYK2 (pTyr1054/1055) AVPEGHEpYpYR, fragment ion y6): 9,679 | PRM signal peak area ([1]; VGFR1 (pTyr1053) NPDpYVR, fragment ion y3): 0 | PRM signal peak area ([1]; VGFR2 (pTyr1059) DPDpYVR, fragment ion Y3): 0 | Kd [2]: 1800 nM | Kd [3]: 390 nM | Kd [4]: 4500 nM | Kd [5]: 27 nM | Kd [6]: 900 nM | Kd [7]: 100 nM | Kd [8]: 390 nM | Kd (Designed peptide GGpYGG): 25000 nM
